One may read the pIC50 as the IC50 on a negative log10 scale, so that one unit is a factor of ten. Usually GI50 stands for the concentration that inhibits growth by half.

The record followed here is US9573954B2, “Pyrazolopyrimidine compounds” (University Health Network, priority 2012, dated 2017).

pIC50: −log10 of the molar value.

One assay has as its target T1, human TTK (Homo sapiens, UniProt P33981).
T1 construct: Active TTK was purchased from Invitrogen as an amino terminal GST fusion of full length human TTK; purchased Invitrogen
T1 sequence (P33981 1-857): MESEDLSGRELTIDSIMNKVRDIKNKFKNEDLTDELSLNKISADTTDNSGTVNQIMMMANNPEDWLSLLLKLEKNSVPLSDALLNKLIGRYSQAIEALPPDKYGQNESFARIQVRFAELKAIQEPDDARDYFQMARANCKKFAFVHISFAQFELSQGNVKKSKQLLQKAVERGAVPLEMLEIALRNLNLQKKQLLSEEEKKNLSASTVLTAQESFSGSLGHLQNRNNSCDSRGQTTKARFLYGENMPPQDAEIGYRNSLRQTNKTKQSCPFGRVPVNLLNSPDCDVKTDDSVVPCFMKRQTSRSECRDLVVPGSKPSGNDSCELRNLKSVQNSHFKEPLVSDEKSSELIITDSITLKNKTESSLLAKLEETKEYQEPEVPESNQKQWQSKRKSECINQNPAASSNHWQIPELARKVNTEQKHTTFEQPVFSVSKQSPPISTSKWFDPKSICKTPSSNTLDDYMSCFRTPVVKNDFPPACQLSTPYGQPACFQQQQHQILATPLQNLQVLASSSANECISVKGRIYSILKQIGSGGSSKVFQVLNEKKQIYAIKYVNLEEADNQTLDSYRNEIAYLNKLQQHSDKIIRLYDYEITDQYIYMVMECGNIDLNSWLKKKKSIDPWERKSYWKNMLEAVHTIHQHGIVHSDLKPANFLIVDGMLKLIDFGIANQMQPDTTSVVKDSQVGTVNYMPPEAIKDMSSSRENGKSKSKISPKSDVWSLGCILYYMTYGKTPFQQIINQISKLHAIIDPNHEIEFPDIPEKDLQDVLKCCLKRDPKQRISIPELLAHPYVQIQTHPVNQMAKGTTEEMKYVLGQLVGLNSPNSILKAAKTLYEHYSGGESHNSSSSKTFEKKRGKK
Briefly: TTK inhibition assay (indirect ELISA). The assay is classed as biochemical. As to conditions: Table 2; 16 μM ATP (asterisk); read-out: TTK IC50 Range. An outline of the steps:
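Activity detected by indirect ELISA after compounds sat with full-length GST-TTK for 5 min prior to starting the reaction with ATP. IC50 came from a four-parameter logistic curve of % inhibition, calculated against background and uninhibited control wells.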
In general terms: An ELISA detects its analyte on a solid surface through an enzyme-linked reagent.

The subject of assay [1] is colon cancer cells (HCT116). Description: Cancer cell line growth inhibition, Sulforhodamine B assay, HCT116. The assay is classed as cell-based. The settings on record: Homo sapiens, HCT-116, 120 h, Table 2; HCT116, 5 days, SRB; read-out: Cancer Cell Line GI50 Range HCT116. An outline of the steps: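 GI50 is calculated from growth inhibition relative to DMSO controls, using TCA-fixed, SRB-stained protein mass read at 570 nm. Compound, 10 nM–50 μM final in 10% FBS DMEM, was applied for 5 days to HCT116 cells that had been plated 24 h before at 1000–4000/well.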
(In general: Sulforhodamine B stains cellular protein and so reports cell mass.)

In assay [2] the test system is breast cancer cells (MDA-MB-231). Briefly: Cancer cell line growth inhibition, Sulforhodamine B assay, MDA-MB-231. The settings on record: Homo sapiens, 120 h; Table 2; MDA-MB-231, 5 days, SRB; read-out: Cancer Cell Line GI50 Range MDA-MB-231. The assay is classed as cell-based. The procedure: (§1) Breast cancer cells (MDA-MB-231 and MDA-MB-468), colon cancer cells (HCT116) and ovarian cancer cells (PA-1 and OVCAR-3) were seeded (1000 to 4000 in 80 μl per well depending on the cell growth rate) into 96 well plates 24 hours before compound overlay. Compounds were prepared as 10 mM stock solutions in 100% DMSO which were diluted with DMEM (Dulbecco's Modified Eagle's Medium) cell growth Medium (Invitrogen, Burlington, ON, Canada) containing 10% FBS (Fetal Bovine Serum) to concentrations ranging from 50 nM to 250 μM. Aliquots (20 μl) from each concentration were overlaid to 80 μl of the pre-seeded cells in the 96 well plates to make final concentrations of 10 nM to 50 μM. The cells were cultured for 5 days before the Sulforhodamine B assay (SRB) was performed to determine the compound's cell growth inhibition activity.
(§2) Sulforhodamine B (purchased from Sigma, Oakville, ON, Canada) is a water-soluble dye that binds to the basic amino acids of the cellular proteins. Thus, colorimetric measurement of the bound dye provides an estimate of the total protein mass that is related to the cell number. the cells are fixed in situ by gently aspirating off the culture media and adding 50 μl ice cold 10% Trichloroacetic Acid (TCA) per well and incubate at 4° C. for 30-60 min, The plates are washed with H2O five times and allowed to air dry for 5 min. Addition of 50 μl 0.4% (w/v) SRB solution in 1% (v/v) acetic acid to each well and incubation for 30 min at RT completes the staining reaction. Following staining, plates are washed four times with 1% acetic acid to remove unbound dye and then allowed to air dry for 5 min. The stain is solubilized with 100 μl of 10 mM Tris pH 10.5 per well. Absorbance is read at 570 nm.
(§3) The percentage (%) of relative growth inhibition was calculated by comparing to DMSO treated only cells (100%). GI50's were determined for compounds with cytotoxic activity. The GI50 was calculated using GraphPad PRISM software (GraphPad Software, Inc., San Diego, Calif., USA).
(§4) In Table 2 below, GI50 value ranges for compound examples against breast cancer cell lines (MDA-MB-231), colon cancer cell lines (HCT116) and ovarian cancer cell lines (PA-1) are given.

Assay [3] has as its system ovarian cancer cells (PA-1). Description: Cancer cell line growth inhibition, Sulforhodamine B assay, PA-1. The assay is classed as cell-based. The settings on record: 120 h; Table 2; PA-1, 5 days, SRB; read-out: Cancer Cell Line GI50 Range PA-1. The protocol:
as §1, §2, §3
In Table 1 below, GI50 value ranges for compound examples against breast cancer cell lines (MDA-MB-468), colon cancer cell lines (HCT116) and ovarian cancer cell lines (PA-1) are given.
as §4

Assay [4] concerns Ovarian 2393A tumor initiating cells. Briefly: Tumor-initiating cell growth inhibition, Alamar Blue assay, ovarian TICs. The assay is classed as cell-based. As to conditions: 144 h; Table 2; ovarian TICs, 6 days, Alamar Blue; read-out: Tumor Initiating Cell GI50 Range Ovarian 2393A. A digest of the protocol:
(§5)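 Colon TICs (4,000/well, non-TC plates) and ovarian TICs (1,000/well, TC plates) kept in serum-free DMEM:F12 with B-27, heparin, bFGF and EGF. Compound added after 24 h at 0.1% DMSO, then 9 days (colon) or 6 days (ovarian) at 37° C. GI50 from Alamar Blue fluorescence (ex 544/em 590) after 4 h.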

Assay [5] relates to Colon 12 tumor initiating cells. Briefly: Tumor-initiating cell growth inhibition, Alamar Blue assay, colon TICs. The assay is classed as cell-based. The settings on record: 216 h; Table 2; colon TICs, 9 days, Alamar Blue; read-out: Tumor Initiating Cell GI50 Range Colon 12. An outline of the steps:
as §5
A general note: Resazurin is reduced to fluorescent resorufin, in cell work by metabolically active cells.

As for `O=C(NC1CC1)c1ccc(-c2cnn3c(NCC4CCOCC4)cc(Oc4ccccc4)nc23)cc1` [Example B3, N-cyclopropyl-4-(5-phenoxy-7-(((tetrahydro-2H-pyran-4-yl)methyl)amino)pyrazolo[1,5-a]pyrimidin-3-yl)benzamide], the pIC50 on human TTK was above 7.00. In addition, the GI50 was at most 100 nM in assay [1]; 100 to 500 nM in assay [2]; at most 100 nM in assay [3]; 100 to 500 nM in assay [4]; 100 to 500 nM in assay [5].
In the case of `Cc1cc(-c2cnn3c(NCCCN4CCOCC4)cc(Oc4ccccc4)nc23)ccc1C(=O)NC1CC1` [Example B19, N-cyclopropyl-2-methyl-4-(7-((3-morpholinopropyl)amino)-5-phenoxypyrazolo[1,5-a]pyrimidin-3-yl)benzamide], the negative-log IC50 (pIC50) on human TTK was above 7.00. Also, the GI50 was 100 to 500 nM in assay [1]; 100 to 500 nM in assay [2]; at most 100 nM in assay [3]; 100 to 500 nM in assay [4]; 100 to 500 nM in assay [5].
For `O=C(NC1CC1)c1ccc(-c2cnn3c(NCC4CCOCC4)cc(Oc4ccccc4)nc23)cc1F` [Example B8, N-cyclopropyl-2-fluoro-4-(5-phenoxy-7-(((tetrahydro-2H-pyran-4-yl)methyl)amino)pyrazolo[1,5-a]pyrimidin-3-yl)benzamide], on human TTK, the pIC50 is above 7.00. Also, the GI50 in assay [1] was 100 to 500 nM; in assay [2], 100 to 500 nM; in assay [3] it was at most 100 nM; in assay [4], 100 to 500 nM; in assay [5], 100 to 500 nM.
On to `Cc1cc(-c2cnn3c(NCC4CCOCC4)cc(Oc4cccc(F)c4)nc23)ccc1C(=O)NC1CC1` [Example B12, N-cyclopropyl-4-(5-(3-fluorophenoxy)-7-(((tetrahydro-2H-pyran-4-yl)methyl)amino)pyrazolo[1,5-a]pyrimidin-3-yl)-2-methylbenzamide], for which the pIC50 on human TTK was above 7.00. The GI50 in assay [1], in assay [2], in assay [3], in assay [4] and in assay [5] was at most 100 nM each time.
As to `CCC(CO)Nc1cc(NCC2CCOCC2)n2ncc(-c3ccc(C(=O)NC4CC4)c(C)c3)c2n1` (stereo in doubt) [Example B29, (R)-N-cyclopropyl-4-(5-((1-hydroxybutan-2-yl)amino)-7-(((tetrahydro-2H-pyran-4-yl)methyl)amino)pyrazolo[1,5-a]pyrimidin-3-yl)-2-methylbenzamide], the pIC50 at human TTK was above 7.00. In addition, the GI50 is 100 to 500 nM in assay [1]; above 500 nM in assay [2]; 100 to 500 nM in assay [3]; above 500 nM in assay [4]; 100 to 500 nM in assay [5].
As for `Cc1cc(-c2cnn3c(NCC4CCOCC4)cc(NC4CCCC4)nc23)ccc1C(=O)NC1CC1` [Example B14, 4-(5-(cyclopentylamino)-7-(((tetrahydro-2H-pyran-4-yl)methyl)amino)pyrazolo[1,5-a]pyrimidin-3-yl)-N-cyclopropyl-2-methylbenzamide], at human TTK, the pIC50 is above 7.00. The GI50 in assay [1], in assay [2], in assay [3], in assay [4] and in assay [5] was at most 100 nM each time.
For `Cc1cc(-c2cnn3c(NCC(C)C)cc(NC4CCOCC4)nc23)ccc1C(=O)NC1CC1` [Example B26, N-cyclopropyl-4-(7-(isobutylamino)-5-((tetrahydro-2H-pyran-4-yl)amino)pyrazolo[1,5-a]pyrimidin-3-yl)-2-methylbenzamide], the pIC50 on human TTK is above 7.00. Besides, the 50% growth inhibitory concentration (GI50) in assay [1] is at most 100 nM; in assay [2], 100 to 500 nM; in assay [3], at most 100 nM.
On to `Cc1cc(-c2cnn3c(NCC(C)C)cc(Oc4cccnc4)nc23)ccc1C(=O)NC1CC1` [Example B25, N-cyclopropyl-4-(7-(isobutylamino)-5-(pyridin-3-yloxy)pyrazolo[1,5-a]pyrimidin-3-yl)-2-methylbenzamide], for which the negative logarithm of the IC50 (pIC50) on human TTK was above 7.00. The GI50 in assay [1], in assay [2] and in assay [3] was at most 100 nM each time.
As for `Cc1cc(-c2cnn3c(NCC4CCOCC4)cc(OC4CCCC4)nc23)ccc1C(=O)NC1CC1` [Example B21, 4-(5-(cyclopentyloxy)-7-(((tetrahydro-2H-pyran-4-yl)methyl)amino)pyrazolo[1,5-a]pyrimidin-3-yl)-N-cyclopropyl-2-methylbenzamide], at human TTK, the pIC50 is above 7.00. The results for the 50% growth inhibitory concentration (GI50) in assay [1], in assay [2] and in assay [3] were at most 100 nM, 100 to 500 nM and at most 100 nM, respectively.
In the case of `Cc1cc(-c2cnn3c(NCC4CCOCC4)cc(NC4CCCCC4)nc23)ccc1C(=O)NC1CC1` [Example B24, 4-(5-(cyclohexylamino)-7-(((tetrahydro-2H-pyran-4-yl)methyl)amino)pyrazolo[1,5-a]pyrimidin-3-yl)-N-cyclopropyl-2-methylbenzamide], the pIC50 at human TTK is above 7.00. Besides, the concentration for 50% growth inhibition (GI50) in assay [1], in assay [2] and in assay [3] was at most 100 nM in each case.
On to `Cc1cc(-c2cnn3c(NCCC4CCOCC4)cc(Oc4cccnc4)nc23)ccc1C(=O)NC1CC1` [Example B22, N-cyclopropyl-2-methyl-4-(5-(pyridin-3-yloxy)-7-((2-(tetrahydro-2H-pyran-4-yl)ethyl)amino)pyrazolo[1,5-a]pyrimidin-3-yl)benzamide], for which, on human TTK, the pIC50 was above 7.00. Moreover, the GI50 in assay [1], in assay [2] and in assay [3] was at most 100 nM each time.
As to `Cc1cc(-c2cnn3c(NC[C@H]4CC[C@H](O)CC4)cc(Oc4ccccc4)nc23)ccc1C(=O)NC1CC1` [Example B31, N-cyclopropyl-4-(7-((((1r,4r)-4-hydroxycyclohexyl)-methyl)amino)-5-phenoxypyrazolo[1,5-a]pyrimidin-3-yl)-2-methylbenzamide], the pIC50 at human TTK is above 7.00. Further, the GI50 in assay [1], in assay [2] and in assay [3] was at most 100 nM throughout.
